The test system of this assay is BDF1 mice, L1210 terephthalanilide-resistant leukemia ip, survival T/C. Description: NCI In Vivo Anticancer Drug Screen. Data for tumor model L1210 Leukemia resistant to A Terephthalanilide; NSC 38280 (intraperitoneal) in B6D2F1 (BDF1) mice. Particulars: endpoint: mean survival time, higher = longer survival. How it is done:
The antitumor activity of compounds was measured in mice bearing transplantable tumors. Survival or tumor size were measured and the results are expressed as the measurement made in the treated group (T) divided by the measurement made in the vehicle treated control group (C). The tumor model used in this assay is L1210 Leukemia resistant to A Terephthalanilide; NSC 38280 (intraperitoneal) in B6D2F1 (BDF1) mice

[1] abbreviates: dose: 25.0 mg/kg/injection, schedule: Q01DX Z (ip), vehicle: carboxymethylcellulose (CMC).
The mark [2] stands for this setting: dose: 37.5 mg/kg/injection, schedule: Q01DX Z (ip), vehicle: carboxymethylcellulose (CMC).
The mark [3] stands for this setting: dose: 0.5 mg/kg/injection, schedule: Q01DX Z (ip), vehicle: carboxymethylcellulose (CMC).
The mark [4] stands for this setting: dose: 1.0 mg/kg/injection, schedule: Q01DX Z (ip), vehicle: carboxymethylcellulose (CMC).
Where [5] appears, read: dose: 2.5 mg/kg/injection, schedule: Q01DX Z (ip), vehicle: carboxymethylcellulose (CMC).
[6] abbreviates: dose: 5.0 mg/kg/injection, schedule: Q01DX010 (ip), vehicle: saline.
Setting [7] is: dose: 5.0 mg/kg/injection, schedule: Q01DX Z (ip), vehicle: carboxymethylcellulose (CMC).
[8] abbreviates: dose: 10.0 mg/kg/injection, schedule: Q01DX010 (ip), vehicle: saline.
Setting [9] is: dose: 10.0 mg/kg/injection, schedule: Q01DX Z (ip), vehicle: carboxymethylcellulose (CMC).
[10] abbreviates: dose: 15.0 mg/kg/injection, schedule: Q01DX Z (ip), vehicle: carboxymethylcellulose (CMC).
Where [11] appears, read: dose: 20.0 mg/kg/injection, schedule: Q01DX Z (ip), vehicle: carboxymethylcellulose (CMC).
Where [12] appears, read: dose: 62.5 mg/kg/injection, schedule: Q01DX010 (ip), vehicle: saline.
The mark [13] stands for this setting: dose: 125.0 mg/kg/injection, schedule: Q01DX010 (ip), vehicle: saline.
The mark [14] stands for this setting: dose: 250.0 mg/kg/injection, schedule: Q01DX010 (ip), vehicle: saline.
Where [15] appears, read: dose: 2.0 mg/kg/injection, schedule: Q01DX010 (ip), vehicle: other.
Setting [16] is: dose: 4.0 mg/kg/injection, schedule: Q01DX010 (ip), vehicle: other.
Where [17] appears, read: dose: 8.0 mg/kg/injection, schedule: Q01DX010 (ip), vehicle: other.
Where [18] appears, read: dose: 2.0 mg/kg/injection, schedule: Q01DX Z (ip), vehicle: carboxymethylcellulose (CMC).

Where “and” joins values, the source holds several entries; their conditions need not be identical. Equal entries are not always repeated. Toxic doses and inconclusive results are not listed.

Turning to `Nc1ncnc2[nH]ncc12`, the T/C is 103 % of control and 105 % of control (dose: 1.5 mg/kg/injection, schedule: Q01DX010 (ip), vehicle: saline); 103 % of control and 108 % of control (dose: 3.0 mg/kg/injection, schedule: Q01DX010 (ip), vehicle: saline); 107 % of control and 111 % of control (dose: 6.0 mg/kg/injection, schedule: Q01DX010 (ip), vehicle: saline); 102 % of control (dose: 12.0 mg/kg/injection, schedule: Q01DX010 (ip), vehicle: saline); 90 % of control under setting [1].

Turning to `Clc1ncnc2nc[nH]c12`, the T/C by setting is: (dose: 7.5 mg/kg/injection, schedule: Q01DX010 (ip), vehicle: saline) 94 % of control and 102 % of control; (dose: 15.0 mg/kg/injection, schedule: Q01DX010 (ip), vehicle: saline) 96 % of control and 105 % of control; (dose: 30.0 mg/kg/injection, schedule: Q01DX010 (ip), vehicle: saline) 120 % of control and 105 % of control; under setting [2], 115 % of control; (dose: 60.0 mg/kg/injection, schedule: Q01DX010 (ip), vehicle: saline) 123 % of control and 110 % of control; (dose: 75.0 mg/kg/injection, schedule: Q01DX Z (ip), vehicle: carboxymethylcellulose (CMC)) 114 % of control. For the same compound, the T/C (dose: 150.0 mg/kg/injection, schedule: Q01DX Z (ip), vehicle: carboxymethylcellulose (CMC)) was 150 % of control.

With `Nc1nc(=S)c2[nH]cnc2[nH]1`, the T/C runs as follows: under setting [3], 165 % of control; under setting [4], 158 % of control; (dose: 1.25 mg/kg/injection, schedule: Q01DX010 (ip), vehicle: saline) 156 % of control; (dose: 2.5 mg/kg/injection, schedule: Q01DX010 (ip), vehicle: saline) 173 % of control; under setting [5], 159 % of control; under setting [6], 108 % of control and 113 % of control. For the same compound, the T/C under setting [7] was 109 % of control; the T/C under setting [8] was 90 % of control and 98 % of control; the T/C under setting [9] is 96 % of control and 116 % of control; the T/C under setting [10] was 106 % of control; the T/C under setting [11] is 96 % of control and 101 % of control; the T/C (dose: 31.0 micrograms/kg/injection, schedule: Q01DX Z (ip), vehicle: carboxymethylcellulose (CMC)) was 107 % of control. The T/C (dose: 125.0 micrograms/kg/injection, schedule: Q01DX Z (ip), vehicle: carboxymethylcellulose (CMC)) is 110 % of control.

As for `O=c1cn[nH]c(=O)[nH]1`, the T/C (dose: 62.0 mg/kg/injection, schedule: Q01DX Z (ip), vehicle: carboxymethylcellulose (CMC)) was 101 % of control; the T/C under setting [12] is 97 % of control and 101 % of control; the T/C under setting [13] was 97 % of control and 105 % of control; the T/C (dose: 125.0 mg/kg/injection, schedule: Q01DX Z (ip), vehicle: carboxymethylcellulose (CMC)) was 101 % of control; the T/C under setting [14] was 106 % of control and 113 % of control; the T/C (dose: 250.0 mg/kg/injection, schedule: Q01DX Z (ip), vehicle: carboxymethylcellulose (CMC)) was 106 % of control. The T/C is 123 % of control and 115 % of control (dose: 500.0 mg/kg/injection, schedule: Q01DX010 (ip), vehicle: saline); 113 % of control (dose: 500.0 mg/kg/injection, schedule: Q01DX Z (ip), vehicle: carboxymethylcellulose (CMC)).

As for `O=C(Nc1ccc(C2=NCCCN2)cc1)c1ccc(C(=O)Nc2ccc(C3=NCCCN3)cc2)cc1`, the T/C runs as follows: (dose: 1.0 mg/kg/injection, schedule: Q01DX010 (ip), vehicle: other) 113 % of control and 114 % of control; under setting [15], 116 % of control; under setting [16], 123 % of control and 120 % of control; under setting [17], 90 % of control and 95 % of control.

As for `O=C(Nc1ccc(C2=NCCCN2)cc1)c1ccc(NC(=O)c2ccc(C3=NCCCN3)cc2)cc1`, the T/C is 110 % of control and 112 % of control under setting [15]; 123 % of control under setting [16]; 102 % of control under setting [17].

For `CN(C)c1nc(N(C)C)nc(N(C)C)n1`, the T/C is 94 % of control and 95 % of control (dose: 18.8 mg/kg/injection, schedule: Q01DX010 (ip), vehicle: saline); 94 % of control and 100 % of control (dose: 37.5 mg/kg/injection, schedule: Q01DX010 (ip), vehicle: saline); 94 % of control and 99 % of control (dose: 75.0 mg/kg/injection, schedule: Q01DX010 (ip), vehicle: saline); 110 % of control (dose: 87.5 mg/kg/injection, schedule: Q01DX Z (ip), vehicle: other); 96 % of control and 99 % of control (dose: 150.0 mg/kg/injection, schedule: Q01DX010 (ip), vehicle: saline); 119 % of control (dose: 175.0 mg/kg/injection, schedule: Q01DX Z (ip), vehicle: other).

Take `Cn1cnc([N+](=O)[O-])c1Sc1nc(N)nc2nc[nH]c12`: the T/C is, setting by setting: under setting [3], 117 % of control; under setting [18], 191 % of control; (dose: 3.75 mg/kg/injection, schedule: Q01DX Z (ip), vehicle: carboxymethylcellulose (CMC)) 170 % of control; under setting [9], 120 % of control.

In the case of `Nc1nc(=S)c2ncn(C3OC(CO)C(O)C3O)c2[nH]1` (stereo unspecified), the T/C is 117 % of control (dose: 0.13 mg/kg/injection, schedule: Q01DX Z (ip), vehicle: carboxymethylcellulose (CMC)); 120 % of control (dose: 0.3 mg/kg/injection, schedule: Q01DX Z (ip), vehicle: carboxymethylcellulose (CMC)); 182 % of control (dose: 1.25 mg/kg/injection, schedule: Q01DX Z (ip), vehicle: carboxymethylcellulose (CMC)); 157 % of control and 179 % of control (dose: 2.0 mg/kg/injection, schedule: Q01DX010 (ip), vehicle: saline); 151 % of control under setting [5]; 86 % of control and 110 % of control (dose: 4.0 mg/kg/injection, schedule: Q01DX010 (ip), vehicle: saline). Further, the T/C runs as follows: under setting [7], 155 % of control; (dose: 8.0 mg/kg/injection, schedule: Q01DX010 (ip), vehicle: saline) 98 % of control; under setting [10], 111 % of control; under setting [11], 102 % of control.

With `O=C(Nc1ccc(NC(=O)Nc2cccc(C3=NCCN3)c2)cc1)Nc1cccc(C2=NCCN2)c1`, the T/C is, setting by setting: (dose: 60.0 mg/kg/injection, schedule: Q01DX Z (ip), vehicle: carboxymethylcellulose (CMC)) 96 % of control; (dose: 120.0 mg/kg/injection, schedule: Q01DX Z (ip), vehicle: carboxymethylcellulose (CMC)) 106 % of control; (dose: 240.0 mg/kg/injection, schedule: Q01DX Z (ip), vehicle: carboxymethylcellulose (CMC)) 106 % of control.

On to `COc1cc(-c2ccc(Nc3ccccc3C(=O)O)c(OC)c2)ccc1Nc1ccccc1C(=O)O`, for which the T/C (dose: 67.0 mg/kg/injection, schedule: Q01DX010 (ip), vehicle: saline) was 150 % of control and 159 % of control.

As for `Nc1nc2n[nH]nc2c(=O)[nH]1`, the T/C runs as follows: (dose: 6.25 mg/kg/injection, schedule: Q01DX Z (ip), vehicle: water) 106 % of control; (dose: 12.5 mg/kg/injection, schedule: Q01DX Z (ip), vehicle: water) 113 % of control; (dose: 400.0 mg/kg/injection, schedule: Q01DX Z (ip), vehicle: water) 95 % of control.

`O=C1CCC(N2C(=O)c3ccccc3C2=O)C(=O)N1` (stereo unspecified): the T/C runs as follows: (dose: 31.3 mg/kg/injection, schedule: Q01DX010 (ip), vehicle: saline) 94 % of control; under setting [12], 96 % of control; under setting [13], 94 % of control; under setting [14], 100 % of control.

Consider `Cc1cc(N(CCCl)CCCl)ccc1N=Nc1ccccc1C(=O)O`, for which the T/C under setting [3] was 105 % of control; the T/C under setting [4] is 102 % of control; the T/C under setting [18] was 115 % of control; the T/C under setting [6] was 108 % of control and 113 % of control; the T/C (dose: 6.25 mg/kg/injection, schedule: Q01DX Z (ip), vehicle: carboxymethylcellulose (CMC)) is 111 % of control; the T/C under setting [8] was 116 % of control and 120 % of control. Moreover, the T/C runs as follows: (dose: 20.0 mg/kg/injection, schedule: Q01DX010 (ip), vehicle: saline) 118 % of control and 119 % of control; under setting [1], 115 % of control; under setting [2], 112 % of control; (dose: 50.0 mg/kg/injection, schedule: Q01DX Z (ip), vehicle: carboxymethylcellulose (CMC)) 100 % of control.
